In PubChem BioAssay AID248 (DTP/NCI, 2004):
Values joined by “and” are separate entries in the source; they are usually repeats but may differ in a detail not shown here. Equal values may be shown once. Inconclusive results and toxic doses are left out. Rule as the data show it: active = T/C of 150% or more; inactive = T/C below 125%.

System: L1210 leukemia ip in BDF1 mice, survival T/C
Test: NCI In Vivo Anticancer Drug Screen. Data for tumor model L1210 Leukemia (intraperitoneal) in B6D2F1 (BDF1) mice
Conditions: endpoint: mean survival time, higher = longer survival
Outline: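 Transplanted-tumor mice were given test agent; controls received vehicle only. Survival readings from the two groups were divided (treated over control).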

[1] = dose: 12.5 mg/kg/injection, schedule: Q01DX009 (ip), vehicle: Klucel (hydroxypropylcellulose) (HPC)
[2] = dose: 25.0 mg/kg/injection, schedule: Q01DX009 (ip), vehicle: Klucel (hydroxypropylcellulose) (HPC)
[3] = dose: 50.0 mg/kg/injection, schedule: Q01DX009 (ip), vehicle: Klucel (hydroxypropylcellulose) (HPC)
[4] = dose: 100.0 mg/kg/injection, schedule: Q04DX003 (ip), vehicle: Klucel (hydroxypropylcellulose) (HPC)
[5] = dose: 100.0 mg/kg/injection, schedule: Q01DX001 (ip), vehicle: saline
[6] = dose: 200.0 mg/kg/injection, schedule: Q04DX003 (ip), vehicle: Klucel (hydroxypropylcellulose) (HPC)
[7] = dose: 400.0 mg/kg/injection, schedule: Q04DX003 (ip), vehicle: Klucel (hydroxypropylcellulose) (HPC)

Measured: T/C

CC[C@@H](O)C[C@H]1CCC[C@@]2(C[C@@H]3OC(=O)/C=C/[C@@](C)(O)[C@@H](O)[C@H](C)[C@@H](O)[C@H](OC4CCC(N(C)C)C(C)O4)[C@@H](O)[C@](C)(O)CCCCC/C=C/[C@@H]4CC(C)(C)O[C@@]4(O)C[C@H](O2)[C@H]3C)O1 (some centres not stated)
inactive: dose: 0.25 mg/kg/injection, schedule: Q04DX003 (ip), vehicle: saline 104 % of control | dose: 0.5 mg/kg/injection, schedule: Q04DX003 (ip), vehicle: saline 111 % of control | dose: 1.0 mg/kg/injection, schedule: Q04DX003 (ip), vehicle: saline 94 % of control | dose: 150.0 micrograms/kg/injection, schedule: Q01DX Z (sc), vehicle: steriod suspending solution 108 % of control | dose: 230.0 micrograms/kg/injection, schedule: Q01DX Z (sc), vehicle: steriod suspending solution 102 % of control | dose: 345.0 micrograms/kg/injection, schedule: Q01DX Z (sc), vehicle: steriod suspending solution 91 % of control

CCCCC(=O)N1CCOCC1
inactive: dose: 100.0 mg/kg/injection, schedule: Q04DX002 (ip), vehicle: saline 107 % of control | dose: 200.0 mg/kg/injection, schedule: Q04DX002 (ip), vehicle: saline 101 % of control | dose: 400.0 mg/kg/injection, schedule: Q04DX002 (ip), vehicle: saline 107 % of control

CC(C)(C)NCC(CN(CC(CNC(C)(C)C)C(=O)c1ccccc1)C(C)(C)C)C(=O)c1ccccc1 (configuration not stated)
inactive: [1] 104 % of control | [2] 101 % of control | [3] 106 % of control | [4] 93 % of control

CCN1C(=O)C(CC)(Cc2ccccc2)C(=O)NC1=S (configuration not stated)
inactive: dose: 75.0 mg/kg/injection, schedule: Q01DX001 (ip), vehicle: alkali diluted with saline 103 % of control | dose: 75.0 mg/kg/injection, schedule: Q01DX001 (ip), vehicle: other 108 % of control | dose: 150.0 mg/kg/injection, schedule: Q01DX001 (ip), vehicle: alkali diluted with saline 98 % of control | dose: 150.0 mg/kg/injection, schedule: Q01DX001 (ip), vehicle: other 105 % of control | dose: 300.0 mg/kg/injection, schedule: Q01DX001 (ip), vehicle: alkali diluted with saline 108 % of control | dose: 300.0 mg/kg/injection, schedule: Q01DX001 (ip), vehicle: other 103 % of control

Cc1cccc(C)c1NC(=O)OCCSc1ccc(Cl)cc1
inactive: dose: 50.0 mg/kg/injection, schedule: Q01DX009 (ip), vehicle: saline with Tween-80 115 % of control | dose: 100.0 mg/kg/injection, schedule: Q01DX009 (ip), vehicle: saline with Tween-80 96 % of control | dose: 200.0 mg/kg/injection, schedule: Q01DX009 (ip), vehicle: saline with Tween-80 93 % of control

CN(CCC(=O)c1ccccc1)CCC(=O)c1ccccc1
inactive: dose: 100.0 mg/kg/injection, schedule: Q01DX001 (ip), vehicle: saline with Tween-80 93 % of control | dose: 200.0 mg/kg/injection, schedule: Q01DX001 (ip), vehicle: saline with Tween-80 94 % of control

CCOc1ccc(C(=O)C(C)CN2CCN(C)CC2)cc1 (configuration not stated)
inactive: [5] 98 % of control

Cn1c(N)c(C=O)c(=O)n(C)c1=O
inactive: dose: 12.5 mg/kg/injection, schedule: Q04DX003 (ip), vehicle: Klucel (hydroxypropylcellulose) (HPC) 95 % of control | dose: 25.0 mg/kg/injection, schedule: Q04DX003 (ip), vehicle: Klucel (hydroxypropylcellulose) (HPC) 105 % of control | dose: 50.0 mg/kg/injection, schedule: Q04DX003 (ip), vehicle: Klucel (hydroxypropylcellulose) (HPC) 96 % of control

Cc1cccc(C)c1NC(=S)NC1CC(C)CC(C)(C)C1 (configuration not stated)
inactive: [1] 100 % of control | [2] 109 % of control | [3] 96 % of control

CCN(CC)S(=O)(=O)c1ccc(C(=O)O)cc1
inactive: dose: 100.0 mg/kg/injection, schedule: Q01DX009 (ip), vehicle: Klucel (hydroxypropylcellulose) (HPC) 101 % of control | [4] 101 % of control | dose: 200.0 mg/kg/injection, schedule: Q01DX009 (ip), vehicle: Klucel (hydroxypropylcellulose) (HPC) 104 % of control | [6] 105 % of control | dose: 400.0 mg/kg/injection, schedule: Q01DX009 (ip), vehicle: Klucel (hydroxypropylcellulose) (HPC) 103 % of control | [7] 92 % of control

OC(C1COC(CBr)O1)C(O)C1COC(CBr)O1 (configuration not stated)
inactive: dose: 100.0 mg/kg/injection, schedule: Q04DX002 (ip), vehicle: Klucel (hydroxypropylcellulose) (HPC) 117 % of control and 113 % of control | dose: 200.0 mg/kg/injection, schedule: Q04DX002 (ip), vehicle: Klucel (hydroxypropylcellulose) (HPC) 98 % of control and 103 % of control | dose: 400.0 mg/kg/injection, schedule: Q04DX002 (ip), vehicle: Klucel (hydroxypropylcellulose) (HPC) 95 % of control

ClCc1ccccc1CCc1ccccc1CCl
inactive: [4] 105 % of control | [6] 94 % of control | [7] 105 % of control

Nc1nc(Cl)[nH]c(=O)n1
inactive: dose: 12.5 mg/kg/injection, schedule: Q01DX001 (ip), vehicle: Klucel (hydroxypropylcellulose) (HPC) 105 % of control | dose: 25.0 mg/kg/injection, schedule: Q01DX001 (ip), vehicle: Klucel (hydroxypropylcellulose) (HPC) 97 % of control | dose: 50.0 mg/kg/injection, schedule: Q01DX001 (ip), vehicle: Klucel (hydroxypropylcellulose) (HPC) 100 % of control

CCCCCCCCCCCCOc1ccc(C=O)cc1OC
inactive: [4] 95 % of control | [6] 98 % of control | [7] 106 % of control

O=C(Nc1nc2ccccc2[nH]1)C(F)(F)F
inactive: [5] 97 % of control | dose: 200.0 mg/kg/injection, schedule: Q01DX001 (ip), vehicle: saline 100 % of control | dose: 400.0 mg/kg/injection, schedule: Q01DX001 (ip), vehicle: saline 97 % of control
